Converted amounts (≈) assume the structure as drawn.
Experiments:
[1] = system: mouse leukemia L1210 cells; experiment: Antitumor test, growth inhibition of L1210 cells in suspension; assay type: cell-based; settings: growth of mouse leukemia L1210 cells in suspension (1 x 10⁶/mouse)
Experimental: An antitumor test was carried out for 5-hydroxy dihydrofusarubin. Half value (IC₅₀) inhibiting growth of mouse leukemia L1210 cells in suspension (1 x 10⁶/mouse) was as follows: […]

[2] = Solubility (physicochemical properties)
Experimental: Physicochemical properties of 5-hydroxydihydrofusarubin (I) produced by the present invention are as follows: • (1) Appearance: Orange plates • (2) Molecular formula: C₁₅H₁₈O₇ • (3) Molecular weight: 310 • (4) Melting point: 192-193°C • (5) Optical rotation: -171.4 (in 0.06% acetone solution) • (6) Ultraviolet and visible absorption spectrum: in 95% ethanol solution: λ max (nm) (logε) 211(4.17), 245(4.08), 284(3.97), 359(3.88) • (7) Infrared absorption spectrum: The infrared absorption spectrum measured in potassium bromide tablet is shown in Fig. 1. • (8) ¹H-NMR: ¹H-NMR measured in deuteriumchloroform is shown in Fig. 2. Chemical shifts were assigned as shown below. [formula] • (9) ¹³C-NMR: ¹³C-NMR measured in deuteriumchloroform is shown in Fig. 3. Chemical shifts were assigned as shown below. [formula] • (10) Solubility: Soluble in chloroform, methylene chloride, ethyl acetate, acetone, ethanol or methanol. […] Solubility in water: Insoluble under acidic or neutral condition, and soluble under alkaline condition.

Candida albicans C-a-30 = experiment: Antimicrobial test, agar plate-dilution method; assay type: cell-based; settings: CA30
Experimental: (§1) Minimum inhibitory concentrations (MIC) of 5-hydroxydihydrofusarubin (I) against bacteria and fungi were determined by the agar plate-dilution method.

[3] = system: Streptococcus pneumoniae DP-1; experiment: Antimicrobial test, agar plate-dilution method; assay type: cell-based; settings: DP1
Experimental: as §1

[4] = system: Staphylococcus aureus FDA209PJC1; experiment: Antimicrobial test, agar plate-dilution method; assay type: cell-based
Experimental: as §1

[5] = system: Bacillus subtilis ATCC 6633; experiment: Antimicrobial test, agar plate-dilution method; assay type: cell-based; settings: ATCC6633
Experimental: as §1

[6] = system: Saccharomyces cereviciae ATCC 9763; experiment: Antimicrobial test, agar plate-dilution method; assay type: cell-based; settings: ATCC9763
Experimental: as §1

COc1cc(O)c2c(c1O)C(O)C1CC(C)(O)OCC1C2=O (stereo not shown) [5-Hydroxydihydrofusarubin]
IC50 [1]: 9.4 ± 0.9 µg/mL (≈ 30.3 µM)
Solubility ([2]; in chloroform, methylene chloride, ethyl acetate, acetone, ethanol or methanol): Soluble
Solubility ([2]; in hexane or petroleum ether): Sparingly soluble
Solubility in water ([2]; under acidic or neutral condition): Insoluble
Solubility in water ([2]; under alkaline condition): soluble
MIC (Candida albicans C-a-30): 100 µg/mL (≈ 322 µM)
MIC [3]: 50 µg/mL (≈ 161 µM)
MIC [4]: 100 µg/mL (≈ 322 µM)
MIC [5]: 100 µg/mL (≈ 322 µM)
MIC [6]: 50 µg/mL (≈ 161 µM)
